We go through three compounds from PubChem BioAssay (NCI).

Holding throughout (experiment): growth of human tumour cells (NCI), 48 h
Experiment [1] concerns DU-145 prostate.
Experiment [2] relates to SNB-19 CNS.
Experiment [3] concerns MALME-3M melanoma.
Experiment [4] has as its system 786-0 renal.
In experiment [5] the test system is T-47D breast.
The subject of experiment [6] is OVCAR-4 ovarian.
The test system of experiment [7] is NCI-H23 lung.
Experiment [8] concerns UACC-62 melanoma.
Experiment [9] relates to TK-10 renal.
Experiment [10] concerns SF-268 CNS.

Where “and” joins values, the source holds several entries; their conditions need not be identical. Equal entries are not always repeated.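 Results reflect a 48-hour exposure of cells in 96-well plates to compound at five concentrations. Abbreviation: GI50, concentration required for 50% inhibition of growth. The concentration for full growth arrest is given as TGI.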 Some results are limits rather than exact numbers.

Turning to `CCCCCCCCCCCC1=NC(C)(C)CN1CC(C)O` (stereo not given), the GI50 in [1] is 11.7 µM; in experiment [2], 12.9 µM; in [3], 5.64 µM; in experiment [4] it was 11.8 µM; in [5], 3.27 µM; in experiment [6] it was 10.6 µM. In addition, the GI50 in [7] was 4.36 µM; in [8], 1.78 µM; in [9], 10.3 µM; in experiment [10], 7.35 µM. In addition, the TGI was found to be 24 µM in [1]; 25.8 µM in [2]; 20.4 µM in [3]; 25.9 µM in [4]; 11.2 µM in experiment [5]; 22.4 µM in experiment [6]. The TGI is 16 µM in [7], 3.47 µM in experiment [8], 22.7 µM in experiment [9] and 19.9 µM in experiment [10].

On to `COc1ccc(C2=N[C@@H](c3ccc(Cl)cc3)[C@@H](c3ccc(Cl)cc3)N2C(=O)N2CCNC(=O)C2)c(OC(C)C)c1`, for which the GI50 in experiment [1] was 15.2 µM and 15.8 µM and 16.6 µM; in experiment [2], 12.5 µM and 15.5 µM and 14.6 µM; in experiment [3] it was 11.2 µM and 2.56 µM and 1.15 µM; in experiment [4], 14.9 µM and 16.6 µM and 17.3 µM; in experiment [5], 14.6 µM and 10.5 µM and 15.2 µM; in [6], 12.1 µM and 12.5 µM and 13.7 µM. Also, the GI50 in experiment [7] was 16 µM and 15.8 µM and 16.4 µM; in [8] it was 11.3 µM and 2.76 µM and 1.38 µM; in experiment [9] it was 16.1 µM and 14.6 µM and 14.8 µM; in experiment [10], 13.9 µM and 13.1 µM and 14 µM. The TGI in experiment [1] is 28.7 µM and 29.3 µM and 30.3 µM; in [2], 26.1 µM and 30.1 µM and 28.2 µM; in experiment [3] it was 25.6 µM and 16.4 µM and 17.1 µM; in experiment [4] it was 29 µM and 32.6 µM and 34 µM; in [5] it was 30.4 µM and 27.4 µM and 40.6 µM; in [6], 24.9 µM and 26 µM and 31.5 µM. Besides, the TGI is 32.1 µM and 33.2 µM and 34.8 µM in [7]; 25.3 µM and 19.2 µM and 16.6 µM in experiment [8]; 29.9 µM and 27.7 µM and 28 µM in [9]; 28 µM and 26.5 µM and 27.9 µM in experiment [10].

`COc1ccc(-n2cc(-c3cc(OC)c(OC)c(OC)c3)[nH]c2=S)cc1Cl`: the GI50 in [1] was 35.7 µM; in experiment [2], 19.5 µM; in experiment [3] it was 40.1 µM; in experiment [4], 23.4 µM; in experiment [5], 29 µM; in experiment [6] it was 27.2 µM. Moreover, the GI50 was 46.4 µM in experiment [7], above 100 µM in [8], 17.2 µM in [9] and 18.3 µM in [10]. Moreover, the TGI was above 100 µM in experiment [1]; 58.4 µM in [2]; above 100 µM in experiment [3]; 54.5 µM in experiment [4]; above 100 µM in experiment [5]; above 100 µM in experiment [6]. The TGI is above 100 µM in [7], above 100 µM in experiment [8], 66.7 µM in experiment [9] and 50.3 µM in experiment [10].
